Results reported in paper PMC9519446, “Discovery of an Orally Active Benzoxaborole Prodrug Effective in the Treatment of Chagas Disease in Non-human Primates” (Nature microbiology, 2022).
Values joined by “and” are separate entries in the source; they are usually repeats but may differ in a detail not shown here. Equal values may be shown once.

Assay: NHP health screening: serum chemistry
Type: in vivo, rhesus macaques (Macaca mulatta)
[1] = Mid-dosing bleed, treated animals, individual values
[2] = Post-dosing bleed, treated animals, individual values
[3] = Post-dosing bleed, Mean of treated F animals
[4] = Post-dosing bleed, individual treated animals
[5] = drug-treatment phase, returned to pre-study values by the final blood draw

With Cc1c(C(=O)N[C@H](C(=O)OCC2CCOCC2)C(C)C)ccc2c1B(O)OC2 [AN15368] the Glob [1] was 3.3 G/Dl and 3.1 G/Dl and 2.8 G/Dl and 3.4 G/Dl and 2.9 G/Dl and 4.1 G/Dl and 3.8 G/Dl and 2.7 G/Dl and 2.5 G/Dl and 3 G/Dl and 3.5 G/Dl and 3.2 G/Dl, the Gluc [1] was 69 Mg/Dl and 72 Mg/Dl and 58 Mg/Dl and 65 Mg/Dl and 66 Mg/Dl and 56 Mg/Dl and 73 Mg/Dl and 55 Mg/Dl and 63 Mg/Dl and 70 Mg/Dl and 48 Mg/Dl and 54 Mg/Dl and 79 Mg/Dl and 68 Mg/Dl and 53 Mg/Dl and the K [1] was 3.9 Meq/L and 3.6 Meq/L and 3.3 Meq/L and 3.4 Meq/L and 3.5 Meq/L and 4.3 Meq/L and 3.8 Meq/L and 3.7 Meq/L. The Ldh [1] was 473 Iu/L and 139 Iu/L and 164 Iu/L and 148 Iu/L and 134 Iu/L and 214 Iu/L and 259 Iu/L and 376 Iu/L and 250 Iu/L and 266 Iu/L and 183 Iu/L and 238 Iu/L and 449 Iu/L and 154 Iu/L and 213 Iu/L and 475 Iu/L and 156 Iu/L and 198 Iu/L and 375 Iu/L, the Na [1] was 148 Meq/L and 150 Meq/L and 147 Meq/L and 144 Meq/L and 149 Meq/L and 146 Meq/L and 152 Meq/L and the Osmo [1] was 284 Mosm/Kg and 289 Mosm/Kg and 281 Mosm/Kg and 283 Mosm/Kg and 288 Mosm/Kg and 276 Mosm/Kg and 286 Mosm/Kg and 280 Mosm/Kg and 287 Mosm/Kg and 293 Mosm/Kg and 285 Mosm/Kg and 282 Mosm/Kg. For the same compound, the Phos [1] was 3.3 Mg/Dl and 3.8 Mg/Dl and 2 Mg/Dl and 2.4 Mg/Dl and 1 Mg/Dl and 2.2 Mg/Dl and 3.9 Mg/Dl and 2.5 Mg/Dl and 3.6 Mg/Dl and 3.1 Mg/Dl and 1.8 Mg/Dl and 4.8 Mg/Dl and 3.2 Mg/Dl, the Tbil [1] was 0.18 Mg/Dl and 0.17 Mg/Dl and 0.14 Mg/Dl and 0.2 Mg/Dl and 0.16 Mg/Dl and 0.19 Mg/Dl and 0.15 Mg/Dl and 0.13 Mg/Dl and the Tco2 [1] was 26 Meq/L and 28 Meq/L and 27 Meq/L and 25 Meq/L and 30 Meq/L and 24 Meq/L. The Tibc [1] was 376 µg/dL and 358 µg/dL and 410 µg/dL and 408 µg/dL and 348 µg/dL and 343 µg/dL and 359 µg/dL and 373 µg/dL and 383 µg/dL and 429 µg/dL and 377 µg/dL and 326 µg/dL and 340 µg/dL and 412 µg/dL and 337 µg/dL and 324 µg/dL and 325 µg/dL, the Tp [1] was 7.2 G/Dl and 6.7 G/Dl and 7.3 G/Dl and 7.5 G/Dl and 6.4 G/Dl and 7 G/Dl and 6.9 G/Dl and 6.5 G/Dl and 6.8 G/Dl and 6.6 G/Dl and the Trig [1] was 99 Mg/Dl and 148 Mg/Dl and 81 Mg/Dl and 85 Mg/Dl and 108 Mg/Dl and 72 Mg/Dl and 32 Mg/Dl and 141 Mg/Dl and 65 Mg/Dl and 82 Mg/Dl and 79 Mg/Dl and 102 Mg/Dl and 29 Mg/Dl and 76 Mg/Dl and 70 Mg/Dl and 62 Mg/Dl and 66 Mg/Dl and 95 Mg/Dl. For the same compound, the Agap [2] was 16 Meq/L and 14 Meq/L, the Alb [2] was 3.9 G/Dl and 3.7 G/Dl and the Alp [2] was 111 Iu/L and 100 Iu/L and 77 Iu/L. The Alt [2] was 52 Iu/L and 63 Iu/L and 59 Iu/L, the Ast [2] was 26 Iu/L and 34 Iu/L and 32 Iu/L and the Bun [2] was 17 Mg/Dl and 14 Mg/Dl. For the same compound, the Ca [2] was 9.5 Mg/Dl and 8.9 Mg/Dl, the Chol [2] was 187 mg/dL and 193 mg/dL and 141 mg/dL and the Ck [2] was 260 Iu/L and 337 Iu/L and 328 Iu/L. The Cl [2] was 107 Meq/L and 111 Meq/L, the Crea [2] was 0.58 Mg/Dl and 0.78 Mg/Dl and 0.68 Mg/Dl and the Fe [2] was 135 µg/dL and 99 µg/dL and 93 µg/dL. For the same compound, the Ggt [2] was 41 Iu/L and 54 Iu/L and 38 Iu/L, the Glob [2] was 3.3 G/Dl and 3.1 G/Dl and 2.9 G/Dl and the Gluc [2] was 63 Mg/Dl and 84 Mg/Dl and 51 Mg/Dl. For the same compound, the K [2] was 3.5 Meq/L and 3.4 Meq/L, the Ldh [2] was 217 Iu/L and 509 Iu/L and 322 Iu/L and the Na [2] was 147 Meq/L and 146 Meq/L and 148 Meq/L. The Osmo [2] was 283 Mosm/Kg and 281 Mosm/Kg and 284 Mosm/Kg, the Phos [2] was 4.6 Mg/Dl and 3.2 Mg/Dl and 2.1 Mg/Dl and the Tbil [2] was 0.19 Mg/Dl and 0.14 Mg/Dl and 0.12 Mg/Dl. For the same compound, the Tco2 [2] was 28 Meq/L and 26 Meq/L, the Tibc [2] was 357 µg/dL and 333 µg/dL and 388 µg/dL and the Tp [2] was 7.2 G/Dl and 6.8 G/Dl and 6.6 G/Dl. For the same compound, the Trig [2] was 64 Mg/Dl and 152 Mg/Dl and 111 Mg/Dl, the Agap [3] was 15.0556 Meq/L and the Alb [3] was 3.833 G/Dl. For the same compound, the Alp [3] was 103.5 Iu/L, the Alt [3] was 52.5556 Iu/L and the Ast [3] was 30.8889 Iu/L. The Bun [3] was 14.9444 Mg/Dl, the Ca [3] was 9.256 Mg/Dl and the Chol [3] was 143.944 mg/dL. For the same compound, the Ck [3] was 504.722 Iu/L, the Cl [3] was 109.722 Meq/L and the Crea [3] was 0.695 Mg/Dl. It also gave a Fe [3] of 115.333 µg/dL, a Ggt [3] of 47 Iu/L and a Glob [3] of 3.178 G/Dl. The Gluc [3] was 64.6667 Mg/Dl, the K [3] was 3.617 Meq/L and the Ldh [3] was 322.722 Iu/L. It also gave a Na [3] of 147.667 Meq/L, an Osmo [3] of 283.5 Mosm/Kg and a Phos [3] of 3.244 Mg/Dl. The Tbil [3] was 0.1383 Mg/Dl, the Tco2 [3] was 26.6111 Meq/L and the Tibc [3] was 363.444 µg/dL. The Tp [3] was 7.006 G/Dl, the Trig [3] was 77.7222 Mg/Dl and the Agap [4] was 14 Meq/L and 13 Meq/L and 17 Meq/L and 15 Meq/L and 19 Meq/L. For the same compound, the Alb [4] was 3.7 G/Dl and 3.8 G/Dl and 3.6 G/Dl and 3.3 G/Dl and 3.5 G/Dl and 4.1 G/Dl and 4.2 G/Dl and 4 G/Dl and 3.4 G/Dl and 3.9 G/Dl, the Alp [4] was 195 Iu/L and 100 Iu/L and 87 Iu/L and 122 Iu/L and 132 Iu/L and 143 Iu/L and 66 Iu/L and 83 Iu/L and 80 Iu/L and 105 Iu/L and 138 Iu/L and 102 Iu/L and 69 Iu/L and 79 Iu/L and the Alt [4] was 97 Iu/L and 39 Iu/L and 41 Iu/L and 87 Iu/L and 35 Iu/L and 91 Iu/L and 28 Iu/L and 31 Iu/L and 48 Iu/L and 71 Iu/L and 43 Iu/L and 46 Iu/L and 64 Iu/L. The Ast [4] was 40 Iu/L and 30 Iu/L and 31 Iu/L and 28 Iu/L and 27 Iu/L and 20 Iu/L and 42 Iu/L and 18 Iu/L and 26 Iu/L and 32 Iu/L and 45 Iu/L and 35 Iu/L, the Bun [4] was 12 Mg/Dl and 16 Mg/Dl and 17 Mg/Dl and 10 Mg/Dl and 18 Mg/Dl and 15 Mg/Dl and 13 Mg/Dl and 20 Mg/Dl and 11 Mg/Dl and 14 Mg/Dl and the Ca [4] was 9.1 Mg/Dl and 8.8 Mg/Dl and 9 Mg/Dl and 9.3 Mg/Dl and 9.8 Mg/Dl and 9.2 Mg/Dl and 9.6 Mg/Dl and 9.4 Mg/Dl and 9.5 Mg/Dl and 8.7 Mg/Dl. For the same compound, the Chol [4] was 121 mg/dL and 130 mg/dL and 133 mg/dL and 163 mg/dL and 147 mg/dL and 123 mg/dL and 150 mg/dL and 157 mg/dL and 141 mg/dL and 125 mg/dL and 129 mg/dL and 155 mg/dL and 160 mg/dL and 115 mg/dL and 127 mg/dL, the Ck [4] was 628 Iu/L and 657 Iu/L and 306 Iu/L and 255 Iu/L and 667 Iu/L and 292 Iu/L and 656 Iu/L and 625 Iu/L and 240 Iu/L and 479 Iu/L and 309 Iu/L and 783 Iu/L and 341 Iu/L and 1583 Iu/L and 339 Iu/L and 291 Iu/L and the Cl [4] was 109 Meq/L and 111 Meq/L and 108 Meq/L and 113 Meq/L and 110 Meq/L and 107 Meq/L. The Crea [4] was 0.68 Mg/Dl and 0.84 Mg/Dl and 0.9 Mg/Dl and 0.6 Mg/Dl and 0.64 Mg/Dl and 0.7 Mg/Dl and 0.75 Mg/Dl and 0.83 Mg/Dl and 0.62 Mg/Dl and 0.65 Mg/Dl and 0.78 Mg/Dl and 0.66 Mg/Dl and 0.53 Mg/Dl, the Fe [4] was 123 µg/dL and 100 µg/dL and 104 µg/dL and 102 µg/dL and 72 µg/dL and 129 µg/dL and 105 µg/dL and 154 µg/dL and 174 µg/dL and 67 µg/dL and 109 µg/dL and 144 µg/dL and 159 µg/dL and 136 µg/dL and the Ggt [4] was 47 Iu/L and 54 Iu/L and 63 Iu/L and 53 Iu/L and 51 Iu/L and 30 Iu/L and 52 Iu/L and 29 Iu/L and 39 Iu/L and 31 Iu/L and 89 Iu/L and 35 Iu/L and 42 Iu/L. The Glob [4] was 3.3 G/Dl and 2.9 G/Dl and 4 G/Dl and 3.5 G/Dl and 3 G/Dl and 3.2 G/Dl and 2.7 G/Dl and 2.8 G/Dl and 3.4 G/Dl, the Gluc [4] was 67 Mg/Dl and 57 Mg/Dl and 69 Mg/Dl and 65 Mg/Dl and 74 Mg/Dl and 62 Mg/Dl and 70 Mg/Dl and 48 Mg/Dl and 50 Mg/Dl and 58 Mg/Dl and 66 Mg/Dl and 75 Mg/Dl and 86 Mg/Dl and 44 Mg/Dl and 51 Mg/Dl and the K [4] was 3.6 Meq/L and 3.5 Meq/L and 3.7 Meq/L and 4.4 Meq/L and 3.4 Meq/L and 3.8 Meq/L. For the same compound, the Ldh [4] was 356 Iu/L and 197 Iu/L and 294 Iu/L and 209 Iu/L and 260 Iu/L and 107 Iu/L and 225 Iu/L and 392 Iu/L and 204 Iu/L and 300 Iu/L and 485 Iu/L and 796 Iu/L and 178 Iu/L and 365 Iu/L and 393 Iu/L and 524 Iu/L, the Na [4] was 147 Meq/L and 150 Meq/L and 148 Meq/L and 151 Meq/L and 146 Meq/L and 149 Meq/L and 145 Meq/L and the Osmo [4] was 281 Mosm/Kg and 288 Mosm/Kg and 283 Mosm/Kg and 282 Mosm/Kg and 284 Mosm/Kg and 291 Mosm/Kg and 280 Mosm/Kg and 286 Mosm/Kg and 279 Mosm/Kg and 287 Mosm/Kg. For the same compound, the Phos [4] was 2.4 Mg/Dl and 1.8 Mg/Dl and 1.9 Mg/Dl and 2.7 Mg/Dl and 3.6 Mg/Dl and 3.8 Mg/Dl and 4.7 Mg/Dl and 2.9 Mg/Dl and 3.7 Mg/Dl and 5.2 Mg/Dl and 2.1 Mg/Dl and 4.6 Mg/Dl and 4.3 Mg/Dl and 4 Mg/Dl, the Tbil [4] was 0.15 Mg/Dl and 0.13 Mg/Dl and 0.1 Mg/Dl and 0.14 Mg/Dl and 0.17 Mg/Dl and 0.12 Mg/Dl and 0.11 Mg/Dl and 0.16 Mg/Dl and the Tco2 [4] was 28 Meq/L and 30 Meq/L and 26 Meq/L and 25 Meq/L and 24 Meq/L and 29 Meq/L and 23 Meq/L. The Tibc [4] was 379 µg/dL and 363 µg/dL and 332 µg/dL and 367 µg/dL and 386 µg/dL and 356 µg/dL and 359 µg/dL and 419 µg/dL and 437 µg/dL and 354 µg/dL and 325 µg/dL and 353 µg/dL and 316 µg/dL and 309 µg/dL, the Tp [4] was 7 G/Dl and 6.7 G/Dl and 7.6 G/Dl and 6.8 G/Dl and 7.5 G/Dl and 7.1 G/Dl and 6.9 G/Dl and 7.2 G/Dl and the Trig [4] was 78 Mg/Dl and 58 Mg/Dl and 56 Mg/Dl and 74 Mg/Dl and 63 Mg/Dl and 59 Mg/Dl and 42 Mg/Dl and 61 Mg/Dl and 158 Mg/Dl and 51 Mg/Dl and 44 Mg/Dl and 113 Mg/Dl and 93 Mg/Dl and 100 Mg/Dl. For the same compound, the “alanine aminotransferase (ALT), mean value” [5] was “mildly elevated” and the “alkaline phosphatase (ALP), mean value” [5] was “mildly elevated”.
